Reference: patent US10413505B1, “Pharmaceutical compositions and methods of using the same” (priority 2017, dated 2019)
“And” between values parts separate entries of the source, which are not always exact repeats. Identical values can stand only once.

Key:
[1] = Example 3 urinary pharmacokinetics, normal hepatic function vs hepatic impairment; type: in vivo, human; settings: for Urine Recovery as % of Dose, Geomean / Urine Recovery as % of Dose, Mean: 0-32 h, single intranasal dose; for CLr Geomean / CLr Mean: Table 26
Method: Urine was collected prior to dosing and from 0-2, 2-4, 4-8, 8-12, 12-24, and 24-32 hours after beginning of dose application. […] Urinary pharmacokinetic parameters included total urinary recovery (μg), urinary recovery as a percentage of dose, and CLr.

[2] = Example 3 plasma pharmacokinetics, normal hepatic function vs hepatic impairment; settings: for AUC0→t (Geometric mean) / AUC0→t (Max) / AUC0→t (Mean) / AUC0→t (Median) / AUC0→t (Min) / AUC0→∞ (Geometric mean) / AUC0→∞ (Max) / AUC0→∞ (Mean) / AUC0→∞ (Median) / AUC0→∞ (Min) / Clast (Geometric mean) / Clast (Max) / Clast (Mean) / Clast (Median) / Clast (Min) / Cmax (Geometric mean) / Cmax (Max) / Cmax (Mean) / Cmax (Median) / Cmax (Min) / Tlast (Geometric mean) / Tlast (Max) / Tlast (Mean) / Tlast (Median) / Tlast (Min) / Tmax (Geometric mean) / Tmax (Max) / Tmax (Mean) / Tmax (Median) / Tmax (Min) / t1/2 (Geometric mean) / t1/2 (Max) / t1/2 (Mean) / t1/2 (Median) / t1/2 (Min): single intranasal 160 mg cocaine HCl, plasma
[3] = Example 2 plasma pharmacokinetics, normal renal function vs severe renal impairment
[4] = normal hepatic function, single intranasal 160 mg cocaine HCl
[5] = subjects with hepatic impairment
[6] = subjects with hepatic impairment, 32 hours post administration
[7] = subjects with hepatic impairment, Table 30
[8] = subjects with normal hepatic function
[9] = subjects with normal hepatic function, Table 29
[10] = normal renal function, single intranasal 160 mg cocaine HCl, plasma
[11] = severe renal impairment, single intranasal 160 mg cocaine HCl, plasma

SMILES: CN1[C@H]2CC[C@@H]1[C@@H](C(=O)O)[C@@H](OC(=O)c1ccccc1)C2 [BE, benzoylecgonine]
- Urine Recovery as % of Dose, Geomean ([1]; Impaired hepatic function): 2.74 % of Dose
- Urine Recovery as % of Dose, Mean ([1]; Impaired hepatic function): 3.30 % of Dose
- CLr Geomean ([1]; Impaired hepatic function): 2.59 L/h
- CLr Mean ([1]; Impaired hepatic function): 2.90 L/h
- Urine Recovery as % of Dose, Geomean ([1]; Normal hepatic function): 1.42 % of Dose
- Urine Recovery as % of Dose, Mean ([1]; Normal hepatic function): 1.73 % of Dose
- CLr Geomean ([1]; Normal hepatic function): 3.96 L/h
- CLr Mean ([1]; Normal hepatic function): 4.30 L/h
- 0-32 h Urinary Recovery (geometric mean) [1, 4]: 1928.3 µg
- 0-32 h Urinary Recovery (mean) [1, 4]: 2359.75 µg
- 0-32 h Urinary Recovery (median) [1, 4]: 2098.9 µg
- Renal Clearance, geometric mean [1, 5]: 43.11 mL/min
- Renal Clearance, mean [1, 5]: 48.27 mL/min
- Renal Clearance, median [1, 5]: 47.80 mL/min
- 0-32 h Urinary Recovery (geometric mean) [1, 6]: 3735.6 µg
- 0-32 h Urinary Recovery (mean) [1, 6]: 4500 µg
- 0-32 h Urinary Recovery (median) [1, 6]: 3283.7 µg
- Renal Clearance, geometric mean [1, 7]: 43.11 mL/min
- Renal Clearance, mean [1, 7]: 48.273 mL/min
- Renal Clearance, median [1, 7]: 47.8 mL/min
- Renal Clearance, geometric mean [1, 8]: 65.948 mL/min
- Renal Clearance, mean [1, 8]: 71.585 mL/min
- Renal Clearance, median [1, 8]: 58.237 mL/min
- Renal Clearance, geometric mean [1, 9]: 65.95 mL/min
- Renal Clearance, mean [1, 9]: 71.585 mL/min
- Renal Clearance, median [1, 9]: 58.23 mL/min
- AUClast, times higher than normal subjects ([2]; Grade B hepatic impairment): approximately 2.4 times
- AUClast, percent increased vs normal ([2]; Grade C hepatic impairment): 12%
- AUC0→t (Geometric mean) ([2]; hepatic impairment): 1235 ng·h/mL
- AUC0→t (Max) ([2]; hepatic impairment): 3356 ng·h/mL
- AUC0→t (Mean) ([2]; hepatic impairment): 1402 ng·h/mL
- AUC0→t (Median) ([2]; hepatic impairment): 1190 ng·h/mL
- AUC0→t (Min) ([2]; hepatic impairment): 606 ng·h/mL
- AUC0→∞ (Geometric mean) ([2]; hepatic impairment): 1513 ng·h/mL
- AUC0→∞ (Max) ([2]; hepatic impairment): 3532 ng·h/mL
- AUC0→∞ (Mean) ([2]; hepatic impairment): 1724 ng·h/mL
- AUC0→∞ (Median) ([2]; hepatic impairment): 1448 ng·h/mL
- AUC0→∞ (Min) ([2]; hepatic impairment): 647 ng·h/mL
- Clast (Geometric mean) ([2]; hepatic impairment): 14.3 ng/mL
- Clast (Max) ([2]; hepatic impairment): 42.6 ng/mL
- Clast (Mean) ([2]; hepatic impairment): 17.6 ng/mL
- Clast (Median) ([2]; hepatic impairment): 16.6 ng/mL
- Clast (Min) ([2]; hepatic impairment): 3.33 ng/mL
- Cmax (Geometric mean) ([2]; hepatic impairment): 67.1 ng/mL
- Cmax (Max) ([2]; hepatic impairment): 248 ng/mL
- Cmax (Mean) ([2]; hepatic impairment): 81.2 ng/mL
- Cmax (Median) ([2]; hepatic impairment): 67.8 ng/mL
- Cmax (Min) ([2]; hepatic impairment): 27.4 ng/mL
- Tlast (Geometric mean) ([2]; hepatic impairment): 32.0 h
- Tlast (Max) ([2]; hepatic impairment): 32.0 h
- Tlast (Mean) ([2]; hepatic impairment): 32.0 h
- Tlast (Median) ([2]; hepatic impairment): 32.0 h
- Tlast (Min) ([2]; hepatic impairment): 1920 min
- Tmax (Geometric mean) ([2]; hepatic impairment): 6.95 h
- Tmax (Max) ([2]; hepatic impairment): 12.0 h
- Tmax (Mean) ([2]; hepatic impairment): 7.50 h
- Tmax (Median) ([2]; hepatic impairment): 7.00 h
- Tmax (Min) ([2]; hepatic impairment): 240 min
- t1/2 (Geometric mean) ([2]; hepatic impairment): 12.3 h
- t1/2 (Max) ([2]; hepatic impairment): 31.0 h
- t1/2 (Mean) ([2]; hepatic impairment): 14.0 h
- t1/2 (Median) ([2]; hepatic impairment): 12.1 h
- t1/2 (Min) ([2]; hepatic impairment): 399 min
- AUC0→t (Geometric mean) ([2]; normal hepatic function): 603 ng·h/mL
- AUC0→t (Max) ([2]; normal hepatic function): 2969 ng·h/mL
- AUC0→t (Mean) ([2]; normal hepatic function): 784 ng·h/mL
- AUC0→t (Median) ([2]; normal hepatic function): 523 ng·h/mL
- AUC0→t (Min) ([2]; normal hepatic function): 144 ng·h/mL
- AUC0→∞ (Geometric mean) ([2]; normal hepatic function): 667 ng·h/mL
- AUC0→∞ (Max) ([2]; normal hepatic function): 3446 ng·h/mL
- AUC0→∞ (Mean) ([2]; normal hepatic function): 869 ng·h/mL
- AUC0→∞ (Median) ([2]; normal hepatic function): 568 ng·h/mL
- AUC0→∞ (Min) ([2]; normal hepatic function): 182 ng·h/mL
- Clast (Geometric mean) ([2]; normal hepatic function): 4.33 ng/mL
- Clast (Max) ([2]; normal hepatic function): 31.6 ng/mL
- Clast (Mean) ([2]; normal hepatic function): 6.17 ng/mL
- Clast (Median) ([2]; normal hepatic function): 3.71 ng/mL
- Clast (Min) ([2]; normal hepatic function): 2.02 ng/mL
- Cmax (Geometric mean) ([2]; normal hepatic function): 43.7 ng/mL
- Cmax (Max) ([2]; normal hepatic function): 171 ng/mL
- Cmax (Mean) ([2]; normal hepatic function): 57.5 ng/mL
- Cmax (Median) ([2]; normal hepatic function): 35.5 ng/mL
- Cmax (Min) ([2]; normal hepatic function): 7.03 ng/mL
- Tlast (Geometric mean) ([2]; normal hepatic function): 32.0 h
- Tlast (Max) ([2]; normal hepatic function): 32.0 h
- Tlast (Mean) ([2]; normal hepatic function): 32.0 h
- Tlast (Median) ([2]; normal hepatic function): 32.0 h
- Tlast (Min) ([2]; normal hepatic function): 1920 min
- Tmax (Geometric mean) ([2]; normal hepatic function): 1.96 h
- Tmax (Max) ([2]; normal hepatic function): 8.00 h
- Tmax (Mean) ([2]; normal hepatic function): 2.38 h
- Tmax (Median) ([2]; normal hepatic function): 1.63 h
- Tmax (Min) ([2]; normal hepatic function): 60 min
- t1/2 (Geometric mean) ([2]; normal hepatic function): 9.00 h
- t1/2 (Max) ([2]; normal hepatic function): 13.1 h
- t1/2 (Mean) ([2]; normal hepatic function): 9.16 h
- t1/2 (Median) ([2]; normal hepatic function): 8.91 h
- t1/2 (Min) ([2]; normal hepatic function): 398 min
- AUC0→t (Geometric mean) [3, 10]: 589.5 ng·h/mL
- AUC0→t (Max) [3, 10]: 2126 ng·h/mL
- AUC0→t (Mean) [3, 10]: 762.1 ng·h/mL
- AUC0→t (Median) [3, 10]: 616 ng·h/mL
- AUC0→t (Min) [3, 10]: 167.4 ng·h/mL
- AUC0→∞ (Geometric mean) [3, 10]: 639.2 ng·h/mL
- AUC0→∞ (Max) [3, 10]: 2284 ng·h/mL
- AUC0→∞ (Mean) [3, 10]: 823.8 ng·h/mL
- AUC0→∞ (Median) [3, 10]: 676 ng·h/mL
- AUC0→∞ (Min) [3, 10]: 166.1 ng·h/mL
- Clast (Geometric mean) [3, 10]: 4 ng/mL and 3.96 ng/mL
- Clast (Max) [3, 10]: 13.60 ng/mL
- Clast (Mean) [3, 10]: 5.08 ng/mL
- Clast (Median) [3, 10]: 4.34 ng/mL
- Clast (Min) [3, 10]: 1.32 ng/mL
- Cmax (Geometric mean) [3, 10]: 40.9 ng/mL
- Cmax (Max) [3, 10]: 158.0 ng/mL
- Cmax (Mean) [3, 10]: 55.7 ng/mL
- Cmax (Median) [3, 10]: 42.1 ng/mL
- Cmax (Min) [3, 10]: 9.0 ng/mL
- Tlast (Geometric mean) [3, 10]: 32.0 h
- Tlast (Max) [3, 10]: 32.0 h
- Tlast (Mean) [3, 10]: 32.0 h
- Tlast (Median) [3, 10]: 32.0 h
- Tlast (Min) [3, 10]: 1920 min
- Tmax (Geometric mean) [3, 10]: 2.75 h
- Tmax (Max) [3, 10]: 6.00 h
- Tmax (Mean) [3, 10]: 3.22 h
- Tmax (Median) [3, 10]: 2.5 h
- Tmax (Min) [3, 10]: 75 min
- t1/2 (Geometric mean) [3, 10]: 8.429 h
- t1/2 (Max) [3, 10]: 9.79 h
- t1/2 (Mean) [3, 10]: 8.47 h
- t1/2 (Median) [3, 10]: 8.32 h
- t1/2 (Min) [3, 10]: 442 min
- geometric mean AUClast, fold higher than in normal subjects ([3]; severe renal impairment vs normal renal function): more than 3.5 fold
- AUC0→t (Geometric mean) [3, 11]: 2091 ng·h/mL
- AUC0→t (Max) [3, 11]: 6242 ng·h/mL
- AUC0→t (Mean) [3, 11]: 2733.6 ng·h/mL
- AUC0→t (Median) [3, 11]: 1758 ng·h/mL
- AUC0→t (Min) [3, 11]: 605.7 ng·h/mL
- Clast (Geometric mean) [3, 11]: 41.3 ng/mL
- Clast (Max) [3, 11]: 133.0 ng/mL
- Clast (Mean) [3, 11]: 54.36 ng/mL
- Clast (Median) [3, 11]: 35.7 ng/mL
- Clast (Min) [3, 11]: 14.50 ng/mL
- Cmax (Geometric mean) [3, 11]: 90.5 ng/mL
- Cmax (Max) [3, 11]: 290.0 ng/mL
- Cmax (Mean) [3, 11]: 120.4 ng/mL
- Cmax (Median) [3, 11]: 75.8 ng/mL
- Cmax (Min) [3, 11]: 23.7 ng/mL
- Tlast (Geometric mean) [3, 11]: 32.0 h
- Tlast (Max) [3, 11]: 32.0 h
- Tlast (Mean) [3, 11]: 32.0 h
- Tlast (Median) [3, 11]: 32.0 h
- Tlast (Min) [3, 11]: 1920 min
- Tmax (Geometric mean) [3, 11]: 6.13 h
- Tmax (Max) [3, 11]: 12.0 h
- Tmax (Mean) [3, 11]: 6.625 h
- Tmax (Median) [3, 11]: 6.0 h
- Tmax (Min) [3, 11]: 180 min
- t1/2 (Geometric mean) [3, 11]: 24.65 h
- t1/2 (Max) [3, 11]: 31.62 h
- t1/2 (Mean) [3, 11]: 24.97 h
- t1/2 (Median) [3, 11]: 24.0 h
- t1/2 (Min) [3, 11]: 1191 min
